Assays:
FGFR1 = biological target: T1, FGFR1 (Homo sapiens, UniProt P11362); experiment: Kinase binding assay (kinase-tagged T7 phage, qPCR), Kd; details: read-out: FGFR1 (Kd nM)
T1 construct: made in house; host or cells: E. coli derived from BL21, infected with T7 phage

FGFR2 = biological target: T2, FGFR2 (Homo sapiens, UniProt P21802); experiment: as above; details: read-out: FGFR2 (Kd nM)
T2 construct: made in house; host or cells: E. coli derived from BL21, infected with T7 phage

BCR-FGFR4 Ba/F3 = biological target: T3, BCR-FGFR4 Ba/F3 (Homo sapiens, UniProt P22455); experiment: Ba/F3 cell viability assay (CellTiter-Glo 2.0); format: cell-based; details: Ba/F3 BCR-FGFR4 cells, 48 hours
T3 construct: host or cells: Ba/F3; the other entry of the earlier key: BCR (P11274, Breakpoint cluster region protein)
Text: (§1) Experimental Purpose: Recombinant kinase fusions are transduced into parental Ba/F3, which becomes dependent upon this constitutive kinase activity for IL3-independent survival. Inhibition of kinase activity leads to cell death, which is monitored using CellTiter-Glo® 2.0 (Promega) which measures intracellular ATP concentration that in turn serves as a marker for viability. BCR-FGFR4 Ba/F3, BCR-FGFR1 Ba/F3 and FGFR3-BAIAP2L1 Ba/F3 were obtained from Advanced Cellular Dynamics (Seattle, WA)
(§2) Cell Viability Assay Procedure: Cell Titer-Glo® 2.0 Luminescent cell viability assay reagent was purchased from Promega (Madison, WI). BCR-FGFR4 Ba/F3, BCR-FGFR1 Ba/F3 and FGFR3-BAIAP2L1 Ba/F3 cells were cultured in RPMI1640 media supplemented with 10% fetal bovine serum. Cultures were maintained at 37° C. in a humidified atmosphere of 5% CO2 and 95% air.
(§3) Cells were plated in 96-well clear bottom/white plates (Corning #3903) at 10,000 cells/well in 100 μl of media, incubated overnight. The next day, test compound DMSO stock solutions were made at 10 mM and 2 μM final concentration. Compounds were then added to cells in a 9-dose, 10-fold dilution series starting at 30 μM with an HP 300e Digital Dispenser (each dose was applied in triplicate). DMSO was backfilled to each well up to 301 nL total volume of test compound+DMSO, and a total of 301 nL DMSO was added to a control/no test compound well in triplicate. The cells in cell culture plates were incubated with the compounds at 37° C. and 5% CO2 for 48 hours. Then 50 μl of Cell Titer Glo 2.0 reagent was added to each well of the cell culture plates. The contents were covered from light and mixed on an orbital shaker at room temperature for 10 min. Luminescence was recorded by a Synergy H1 Microplate Reader (Biotek, Winooski, VT). Cells were assessed as a percentage of DMSO only treated control cells. Curves were plotted and IC50 values were calculated using the GraphPad Prism 8 program based on a sigmoidal dose-response equation (4 parameter).

FGFR3 = biological target: T4, FGFR3 (Homo sapiens, UniProt P22607); experiment: Kinase binding assay (kinase-tagged T7 phage, qPCR), Kd; details: read-out: FGFR3 (Kd nM)
T4 construct: made in house; host or cells: E. coli derived from BL21, infected with T7 phage

FGFR4 = biological target: T5, FGFR4 (Homo sapiens, UniProt P22455); experiment: as above; details: read-out: FGFR4 (Kd nM)
T5 construct: made in house; host or cells: E. coli derived from BL21, infected with T7 phage

BCR-FGFR1 Ba/F3 = biological target: T6, BCR-FGFR1 Ba/F3 (Homo sapiens, UniProt P11362); experiment: Ba/F3 cell viability assay (CellTiter-Glo 2.0); format: cell-based; details: Ba/F3 BCR-FGFR1 cells, 48 hours
T6 construct: host or cells: Ba/F3; the other entry of the earlier key: BCR (P11274, Breakpoint cluster region protein)
Text: as §1, §2, §3

FGFR3-BAIAP2L1 Ba/F3 = biological target: T7, FGFR3-BAIAP2L1 Ba/F3 (Homo sapiens, UniProt P22607); experiment: Ba/F3 cell viability assay (CellTiter-Glo 2.0); format: cell-based; details: Ba/F3 FGFR3-BAIAP2L1 cells, 48 hours
T7 construct: host or cells: Ba/F3; the other entry of the earlier key: BAIAP2L1 (Q9UHR4, BAR/IMD domain-containing adapter protein 2-like 1)
Text: as §1, §2, §3

T2 sequence (P21802 22-821): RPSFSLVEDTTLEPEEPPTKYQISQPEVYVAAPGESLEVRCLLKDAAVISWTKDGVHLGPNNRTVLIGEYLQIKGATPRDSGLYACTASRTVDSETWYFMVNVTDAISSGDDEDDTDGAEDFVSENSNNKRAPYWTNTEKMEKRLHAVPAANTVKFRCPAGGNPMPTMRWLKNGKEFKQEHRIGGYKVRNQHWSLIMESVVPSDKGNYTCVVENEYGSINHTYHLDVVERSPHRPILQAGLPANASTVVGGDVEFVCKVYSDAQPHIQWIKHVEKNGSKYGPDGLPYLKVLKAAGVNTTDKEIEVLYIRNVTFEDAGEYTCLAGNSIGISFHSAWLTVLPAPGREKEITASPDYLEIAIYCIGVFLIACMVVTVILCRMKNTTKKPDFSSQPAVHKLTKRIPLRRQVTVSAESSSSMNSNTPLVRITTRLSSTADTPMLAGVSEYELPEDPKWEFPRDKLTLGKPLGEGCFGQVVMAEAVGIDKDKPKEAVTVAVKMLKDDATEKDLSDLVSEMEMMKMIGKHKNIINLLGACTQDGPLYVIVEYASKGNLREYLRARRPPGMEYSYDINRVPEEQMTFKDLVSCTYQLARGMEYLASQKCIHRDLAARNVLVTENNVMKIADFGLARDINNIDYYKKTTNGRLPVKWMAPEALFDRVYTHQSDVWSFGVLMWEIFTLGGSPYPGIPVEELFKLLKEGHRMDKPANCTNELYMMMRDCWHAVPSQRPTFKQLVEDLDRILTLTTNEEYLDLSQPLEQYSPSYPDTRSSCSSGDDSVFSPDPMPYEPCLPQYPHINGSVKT
T7 sequence (P22607 397-758 limits assumed): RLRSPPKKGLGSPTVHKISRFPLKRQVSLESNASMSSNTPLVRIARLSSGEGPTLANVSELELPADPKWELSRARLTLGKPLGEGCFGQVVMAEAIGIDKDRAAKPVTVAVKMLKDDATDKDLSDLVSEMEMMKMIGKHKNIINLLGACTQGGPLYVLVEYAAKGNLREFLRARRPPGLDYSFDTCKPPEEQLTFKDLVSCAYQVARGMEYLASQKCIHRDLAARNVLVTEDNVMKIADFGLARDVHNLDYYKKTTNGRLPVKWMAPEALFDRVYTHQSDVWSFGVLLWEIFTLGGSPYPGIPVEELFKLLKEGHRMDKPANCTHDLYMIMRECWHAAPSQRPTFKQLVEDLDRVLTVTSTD
T3 sequence (P22455 467-755 limits assumed): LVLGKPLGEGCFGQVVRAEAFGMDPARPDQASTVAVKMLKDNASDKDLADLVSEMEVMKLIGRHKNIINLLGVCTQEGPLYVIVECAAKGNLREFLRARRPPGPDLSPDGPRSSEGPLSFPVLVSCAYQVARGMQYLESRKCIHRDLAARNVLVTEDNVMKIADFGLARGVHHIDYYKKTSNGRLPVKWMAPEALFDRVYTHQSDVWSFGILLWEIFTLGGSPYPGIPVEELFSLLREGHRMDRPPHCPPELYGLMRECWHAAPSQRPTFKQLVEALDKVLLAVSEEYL
T6 sequence (P11362 478-767 limits assumed): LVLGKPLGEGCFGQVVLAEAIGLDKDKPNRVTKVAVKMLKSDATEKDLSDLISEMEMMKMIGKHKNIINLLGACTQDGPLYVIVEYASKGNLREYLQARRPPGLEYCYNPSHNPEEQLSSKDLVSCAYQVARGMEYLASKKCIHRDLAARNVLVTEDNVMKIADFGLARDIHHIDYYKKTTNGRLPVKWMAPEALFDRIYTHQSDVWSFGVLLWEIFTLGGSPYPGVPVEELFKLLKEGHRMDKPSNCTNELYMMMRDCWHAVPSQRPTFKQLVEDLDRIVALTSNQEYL
T5 sequence (P22455 22-802): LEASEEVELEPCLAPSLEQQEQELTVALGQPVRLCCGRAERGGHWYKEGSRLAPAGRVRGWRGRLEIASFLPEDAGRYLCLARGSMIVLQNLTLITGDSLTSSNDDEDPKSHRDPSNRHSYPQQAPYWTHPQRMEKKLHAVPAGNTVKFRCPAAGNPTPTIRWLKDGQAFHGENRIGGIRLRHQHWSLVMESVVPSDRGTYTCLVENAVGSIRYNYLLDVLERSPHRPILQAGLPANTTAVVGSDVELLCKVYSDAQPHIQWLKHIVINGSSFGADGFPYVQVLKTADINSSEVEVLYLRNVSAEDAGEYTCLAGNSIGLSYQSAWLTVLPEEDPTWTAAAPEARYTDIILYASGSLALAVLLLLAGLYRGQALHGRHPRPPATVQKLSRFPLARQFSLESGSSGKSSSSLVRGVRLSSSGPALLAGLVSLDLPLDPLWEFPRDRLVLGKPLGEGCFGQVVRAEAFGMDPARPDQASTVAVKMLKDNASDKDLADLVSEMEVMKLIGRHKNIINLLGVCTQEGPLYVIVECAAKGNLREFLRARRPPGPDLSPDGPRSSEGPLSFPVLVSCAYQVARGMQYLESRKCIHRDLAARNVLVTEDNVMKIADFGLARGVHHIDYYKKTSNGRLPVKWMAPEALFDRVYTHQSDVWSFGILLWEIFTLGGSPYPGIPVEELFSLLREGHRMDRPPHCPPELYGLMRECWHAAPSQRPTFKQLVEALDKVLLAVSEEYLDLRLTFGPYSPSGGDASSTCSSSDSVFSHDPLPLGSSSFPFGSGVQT
T4 sequence (P22607 23-806): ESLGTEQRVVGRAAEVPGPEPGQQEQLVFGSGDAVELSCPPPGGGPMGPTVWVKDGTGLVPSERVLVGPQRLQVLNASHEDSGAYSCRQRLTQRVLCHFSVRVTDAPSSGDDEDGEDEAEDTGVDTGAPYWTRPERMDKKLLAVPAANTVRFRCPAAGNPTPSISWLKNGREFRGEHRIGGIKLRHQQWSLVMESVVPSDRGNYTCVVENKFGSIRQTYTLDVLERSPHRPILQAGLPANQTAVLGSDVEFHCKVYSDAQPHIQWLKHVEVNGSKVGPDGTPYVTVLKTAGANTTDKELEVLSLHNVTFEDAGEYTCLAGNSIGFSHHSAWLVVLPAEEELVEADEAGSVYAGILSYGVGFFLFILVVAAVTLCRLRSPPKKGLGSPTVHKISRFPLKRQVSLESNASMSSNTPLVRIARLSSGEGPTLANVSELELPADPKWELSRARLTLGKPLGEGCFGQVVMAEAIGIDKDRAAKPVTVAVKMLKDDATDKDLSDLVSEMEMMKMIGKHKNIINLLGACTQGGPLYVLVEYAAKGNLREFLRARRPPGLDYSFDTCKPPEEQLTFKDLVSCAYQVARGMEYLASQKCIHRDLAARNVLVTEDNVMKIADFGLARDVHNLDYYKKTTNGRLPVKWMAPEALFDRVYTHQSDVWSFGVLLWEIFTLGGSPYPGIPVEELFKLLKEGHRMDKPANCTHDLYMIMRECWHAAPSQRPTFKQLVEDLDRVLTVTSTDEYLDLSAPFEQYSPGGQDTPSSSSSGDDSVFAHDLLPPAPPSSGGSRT
T1 sequence (P11362 22-822): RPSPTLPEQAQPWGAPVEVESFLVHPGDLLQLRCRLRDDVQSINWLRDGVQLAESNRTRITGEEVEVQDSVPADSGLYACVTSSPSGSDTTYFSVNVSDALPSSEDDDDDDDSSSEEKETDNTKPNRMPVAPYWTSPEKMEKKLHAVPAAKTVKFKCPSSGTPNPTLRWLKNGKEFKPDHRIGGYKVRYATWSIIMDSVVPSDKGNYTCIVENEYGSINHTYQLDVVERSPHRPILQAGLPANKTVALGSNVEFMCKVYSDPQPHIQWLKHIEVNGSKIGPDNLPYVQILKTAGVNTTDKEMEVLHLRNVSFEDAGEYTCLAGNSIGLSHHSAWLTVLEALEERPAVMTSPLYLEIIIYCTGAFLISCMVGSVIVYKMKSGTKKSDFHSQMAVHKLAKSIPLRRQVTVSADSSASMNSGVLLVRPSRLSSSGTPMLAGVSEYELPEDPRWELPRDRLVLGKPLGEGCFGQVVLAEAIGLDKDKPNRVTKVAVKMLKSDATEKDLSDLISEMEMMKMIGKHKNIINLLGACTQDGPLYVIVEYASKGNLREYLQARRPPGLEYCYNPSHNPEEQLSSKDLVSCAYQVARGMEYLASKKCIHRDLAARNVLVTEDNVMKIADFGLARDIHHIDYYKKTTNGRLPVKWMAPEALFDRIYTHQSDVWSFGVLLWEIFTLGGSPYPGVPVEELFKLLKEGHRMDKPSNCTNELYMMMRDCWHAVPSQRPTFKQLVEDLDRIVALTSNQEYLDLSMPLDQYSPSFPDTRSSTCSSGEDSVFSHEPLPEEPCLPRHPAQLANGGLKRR

Row | SMILES | Kd (FGFR1) [nM] | Kd (FGFR2) [nM] | Kd (FGFR3) [nM] | Kd (FGFR4) [nM] | IC50 (BCR-FGFR4 Ba/F3) [nM] | IC50 (BCR-FGFR1 Ba/F3) [nM] | IC50 (FGFR3-BAIAP2L1 Ba/F3) [nM]
1 | C[C@@H](Oc1ccc2[nH]nc(-c3cnc4c(c3)NCCO4)c2c1)c1c(Cl)cncc1Cl [Example 17, 7-[5-[(1R)-1-(3,5-dichloro-4-pyridyl)ethoxy]-1H-indazol-3-yl]-2,3-dihydro-1H-pyrido[2,3-b][1,4]oxazine] | 0.1 to 100 | 0.1 to 100 | 0.1 to 100 | 0.1 to 100 | 250 to 1000 | – | –
2 | C[C@@H](Oc1ccc2[nH]nc(-c3cnc4c(c3)N(C(=O)c3ccccn3)CCO4)c2c1)c1c(Cl)cncc1Cl [Example 20, [7-[5-[(1R)-1-(3,5-dichloro-4-pyridyl)ethoxy]-1H-indazol-3-yl]-2,3-dihydropyrido[2,3-b][1,4]oxazin-1-yl]-(2-pyridyl)methanone] | 100 to 250 | 100 to 250 | 0.1 to 100 | 0.1 to 100 | 250 to 1000 | – | –
3 | C[C@@H](Oc1ccc2[nH]nc(-c3cnc(N)c(C#N)c3)c2c1)c1c(Cl)cncc1Cl [Example 30, 2-amino-5-[5-[(1R)-1-(3,5-dichloro-4-pyridyl)ethoxy]-1H-indazol-3-yl]pyridine-3-carbonitrile] | 0.1 to 100 | > 1000 | 0.1 to 100 | 0.1 to 100 | 250 to 1000 | – | –
4 | Cc1cc(-c2n[nH]c3ccc(O[C@H](C)c4c(Cl)cncc4Cl)cc23)cnc1N[C@@H]1CCOC1 [Example 158, 5-(5-((R)-1-(3,5-dichloropyridin-4-yl)ethoxy)-1H-indazol-3-yl)-3-methyl-N-((R)-tetrahydrofuran-3-yl)pyridin-2-amine] | 0.1 to 100 | 100 to 250 | 0.1 to 100 | 0.1 to 100 | – | 250 to 1000 | 0.1 to 100
5 | C[C@@H](Oc1ccc2[nH]nc(-c3ccc(NC4CC5(C4)CN(S(C)(=O)=O)C5)nc3)c2c1)c1c(Cl)cncc1Cl [Example 159, (R)-N-(5-(5-(1-(3,5-dichloropyridin-4-yl)ethoxy)-1H-indazol-3-yl)pyridin-2-yl)-2-(methylsulfonyl)-2-azaspiro[3.3]heptan-6-amine] | 0.1 to 100 | 0.1 to 100 | 0.1 to 100 | 0.1 to 100 | – | 0.1 to 100 | 0.1 to 100
6 | C[C@@H](Oc1ccc2[nH]nc(-c3ccc(OC4C5CN(S(C)(=O)=O)CC54)nc3)c2c1)c1c(Cl)cncc1Cl (stereo partly drawn) [Example 162, 5-((R)-1-(3,5-dichloropyridin-4-yl)ethoxy)-3-(6-((3-(methylsulfonyl)-3-azabicyclo[3.1.0]hexan-6-yl)oxy)pyridin-3-yl)-1H-indazole] | 0.1 to 100 | 0.1 to 100 | 0.1 to 100 | 0.1 to 100 | – | 100 to 250 | 0.1 to 100
7 | Cc1ncc(Cl)c([C@@H](C)Oc2ccc3[nH]nc(-c4ccc5c(c4)COC4(CCN(CC(F)F)CC4)O5)c3c2)c1Cl [Example 166, (R)-6-(5-(1-(3,5-Dichloro-2-methylpyridin-4-yl)ethoxy)-1H-indazol-3-yl)-1′-(2,2-difluoroethyl)-4H-spiro[benzo[d][1,3]dioxine-2,4′-piperidine]] | 100 to 250 | 100 to 250 | 0.1 to 100 | 0.1 to 100 | – | > 1000 | 100 to 250

The next lines start with results.

Row | Kd (FGFR1) [nM] | Kd (FGFR2) [nM] | Kd (FGFR3) [nM] | Kd (FGFR4) [nM] | SMILES | IC50 (BCR-FGFR4 Ba/F3) [nM] | IC50 (BCR-FGFR1 Ba/F3) [nM] | IC50 (FGFR3-BAIAP2L1 Ba/F3) [nM]
8 | > 1000 | > 1000 | 250 to 1000 | 0.1 to 100 | C[C@@H](Oc1ccc2[nH]nc(-c3cnc4c(c3)N(C(=O)CCN(C)C)CCO4)c2c1)c1c(Cl)cncc1Cl [Example 26, 1-[7-[5-[(1R)-1-(3,5-dichloro-4-pyridyl)ethoxy]-1H-indazol-3-yl]-2,3-dihydropyrido[2,3-b][1,4]oxazin-1-yl]-3-(dimethyl-amino)propan-1-one] | 0.1 to 100 | – | –
9 | 250 to 1000 | 250 to 1000 | 0.1 to 100 | 0.1 to 100 | COc1cc(-c2n[nH]c3ccc(O[C@H](C)c4c(Cl)cncc4Cl)cc23)cnc1N [Example 34, 5-[5-[(1R)-1-(3,5-dichloro-4-pyridyl)ethoxy]-1H-indazol-3-yl]-3-methoxy-pyridin-2-amine] | 250 to 1000 | – | –
10 | 0.1 to 100 | 0.1 to 100 | 0.1 to 100 | 0.1 to 100 | Cc1ncc(Cl)c([C@@H](C)Oc2ccc3[nH]nc(-c4ccc(N[C@@H]5CCOC5)nc4)c3c2)c1Cl [Example 155, 5-(5-((R)-1-(3,5-Dichloro-2-methylpyridin-4-yl)ethoxy)-1H-indazol-3-yl)-N-((R)-tetrahydrofuran-3-yl)pyridin-2-amine] | – | 100 to 250 | 0.1 to 100
11 | 0.1 to 100 | 0.1 to 100 | 0.1 to 100 | 0.1 to 100 | Cc1ncc(Cl)c([C@@H](C)Oc2ccc3[nH]nc(-c4ccc(NC5CCOCC5)nc4)c3c2)c1Cl [Example 156] | – | 100 to 250 | 0.1 to 100
12 | 0.1 to 100 | 0.1 to 100 | 0.1 to 100 | 0.1 to 100 | C[C@@H](Oc1ccc2[nH]nc(-c3ccc4c(c3)COC3(CCN(C5CCC5)CC3)O4)c2c1)c1c(Cl)cncc1Cl [Example 157, (R)-1′-Cyclobutyl-6-(5-(1-(3,5-dichloropyridin-4-yl)ethoxy)-1H-indazol-3-yl)-4H-spiro[benzo[d][1,3]dioxine-2,4′-piperidine]] | – | 250 to 1000 | 0.1 to 100
13 | 0.1 to 100 | 0.1 to 100 | 0.1 to 100 | 0.1 to 100 | Cc1ncc(Cl)c([C@@H](C)Oc2ccc3[nH]nc(-c4ccc(N[C@H]5CCOC5)nc4)c3c2)c1Cl [Example 160, 5-[5-[(1R)-1-(3,5-dichloro-2-methyl-4-pyridyl)ethoxy]-1H-indazol-3-yl]-N-[(3S)-tetrahydrofuran-3-yl]pyridin-2-amine] | – | 100 to 250 | 0.1 to 100
14 | 100 to 250 | 0.1 to 100 | 0.1 to 100 | 100 to 250 | Cc1ncc(Cl)c([C@@H](C)Oc2ccc3[nH]nc(-c4ccc5c(c4)COC4(CCN(S(C)(=O)=O)CC4)O5)c3c2)c1Cl [Example 163, (R)-6-(5-(1-(3,5-Dichloro-2-methylpyridin-4-yl)ethoxy)-1H-indazol-3-yl)-1′-(methylsulfonyl)-4H-spiro[benzo[d][1,3]dioxine-2,4′-piperidine]] | – | 250 to 1000 | 0.1 to 100
15 | 250 to 1000 | 0.1 to 100 | 0.1 to 100 | 0.1 to 100 | Cc1cc(-c2n[nH]c3ccc(O[C@H](C)c4c(Cl)cnc(C)c4Cl)cc23)cnc1N[C@@H]1CCOC1 [Example 164, 5-[5-[(1R)-1-(3,5-dichloro-2-methyl-4-pyridyl)ethoxy]-1H-indazol-3-yl]-3-methyl-N-[(3R)-tetrahydrofuran-3-yl]pyridin-2-amine] | – | > 1000 | 0.1 to 100
16 | 0.1 to 100 | 0.1 to 100 | 0.1 to 100 | 0.1 to 100 | C[C@@H](Oc1ccc2[nH]nc(-c3ccc4c(c3)COC3(CCN(S(C)(=O)=O)CC3)O4)c2c1)c1c(Cl)cncc1Cl [Example 165, 6-[5-[(1R)-1-(3,5-dichloro-4-pyridyl)ethoxy]-1H-indazol-3-yl]-1′-methylsulfonyl-spiro[4H-1,3-benzodioxine-2,4′-piperidine]] | – | 250 to 1000 | 0.1 to 100
17 | 100 to 250 | 100 to 250 | 0.1 to 100 | 0.1 to 100 | C[C@@H](Oc1ccc2[nH]nc(-c3ccc4c(c3)COC3(CCN(CC(F)(F)F)CC3)O4)c2c1)c1c(Cl)cncc1Cl [Example 169, 6-[5-[(1R)-1-(3,5-dichloro-4-pyridyl)ethoxy]-1H-indazol-3-yl]-1′-(2,2,2-trifluoroethyl)spiro[4H-1,3-benzodioxine-2,4′-piperidine]] | – | > 1000 | 0.1 to 100
